The target in one test is T1, JNK1 (Homo sapiens, UniProt P45983).
T1 construct: purchased Carna Biosciences
T1 sequence (P45983 whole entry): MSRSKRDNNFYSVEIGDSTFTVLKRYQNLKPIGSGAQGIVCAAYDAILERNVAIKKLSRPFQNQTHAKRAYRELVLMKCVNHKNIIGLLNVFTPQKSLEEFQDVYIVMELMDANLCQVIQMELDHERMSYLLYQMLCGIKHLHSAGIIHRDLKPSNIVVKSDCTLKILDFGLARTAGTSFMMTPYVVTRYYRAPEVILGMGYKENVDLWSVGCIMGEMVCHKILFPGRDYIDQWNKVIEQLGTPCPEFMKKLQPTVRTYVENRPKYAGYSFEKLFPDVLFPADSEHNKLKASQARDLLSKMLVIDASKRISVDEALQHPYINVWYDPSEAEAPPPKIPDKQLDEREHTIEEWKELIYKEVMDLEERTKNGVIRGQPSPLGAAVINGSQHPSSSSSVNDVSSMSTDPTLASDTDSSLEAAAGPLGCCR
As to the kind of experiment: JNK1 biochemical assays (one or more of: time resolved fluorescence, Z'-LYTE Cascade, radioactive). Particulars: Table 2; JNK1 IC50 activity level; read-out: Act. Level.
`NC(=O)c1cnc(NC2CCN(Cc3ccccc3)CC2)nc1Nc1ccccc1` [Example B-50, 2-(1-benzylpiperidin-4-ylamino)-4-(phenylamino)pyrimidine-5-carboxamide]: the IC50 fell in the range of 200 to 800 nM.

With `COc1ccc(Nc2ncc(C(N)=O)c(Nc3ccccc3)n2)c(OC)c1` [Example B-20, 2-(2,4-dimethoxyphenylamino)-4-(phenylamino)pyrimidine-5-carboxamide], the IC50 is below 200 nM.

For the molecule `NC(=O)c1cnc(N[C@H]2CCOc3ccccc32)nc1N[C@@H]1CCC[C@H](O)C1` [Example B-78, 2-((S)-chroman-4-ylamino)-4-((1R,3S)-3-hydroxycyclohexylamino)pyrimidine-5-carboxamide], the IC50 was in the range of 800 to 1000 nM.

For the molecule `NC(=O)c1cnc(N2CCC(C(N)=O)CC2)nc1Nc1ccccc1` [Example B-37, 2-(4-carbamoylpiperidin-1-yl)-4-(phenylamino)pyrimidine-5-carboxamide], the IC50 lay within 1000 to 10000 nM.

In the case of `CC(=O)N1CCC(Nc2ncc(C(N)=O)c(Nc3ccccc3)n2)CC1` [Example B-10, 2-(1-acetylpiperidin-4-ylamino)-4-(phenylamino)pyrimidine-5-carboxamide], the IC50 was 1000 to 10000 nM.

As for `Cc1ccccc1Nc1ncc(C(N)=O)c(Nc2ccccc2)n1` [Example B-30, 4-(phenylamino)-2-(o-tolylamino)pyrimidine-5-carboxamide], the IC50 is below 200 nM.

Turning to `NC(=O)c1cnc(NCC2CC2)nc1Nc1ccccc1` [Example B-35, 2-(cyclopropylmethylamino)-4-(phenylamino)pyrimidine-5-carboxamide], the IC50 lay within 200 to 800 nM.

Still in this test, the particulars now being: Table 3; JNK1 IC50 activity level; read-out: Act. Level.
On to `C[C@]1(O)CCC[C@@H](Nc2nc(N[C@H]3CC[C@H](OC(F)F)CC3)ncc2C#N)C1` [Example C-44, 2-((1r,4R)-4-(difluoromethoxy)cyclohexylamino)-4-((1R,3S)-3-hydroxy-3-methylcyclohexylamino) pyrimidine-5-carbonitrile], for which the IC50 is below 200 nM.

With `CO[C@H]1CC[C@H](Nc2ncc(C#N)c(N[C@@H]3CCC[C@H](O)C3)n2)CC1` [Example C-4, 4-((1R,3S)-3-hydroxycyclohexylamino)-2-((1r,4R)-4-methoxycyclohexylamino) pyrimidine-5-carbonitrile], the IC50 is below 200 nM.

Staying with this test, now noted: one or more of the JNK1 biochemical assays; read-out: Act. Level (JNK1 IC50 activity level).
With `CC1CCC1Nc1nc(N[C@H]2CC[C@H](O)CC2)ncc1C(N)=O` (some centres unmarked) [Example 244, 2-((1r,4r)-4-hydroxycyclohexylamino)-4-(2-methylcyclobutylamino)pyrimidine-5-carboxamide], the IC50 is below 200 nM.

With `CCC1(Nc2nc(N[C@H]3CC[C@H](OC4CC4)CC3)ncc2C(N)=O)CCCC1` [Example 463, 2-((1r,4r)-4-cyclopropoxycyclohexylamino)-4-(1-ethylcyclopentylamino)pyrimidine-5-carboxamide], the IC50 was below 200 nM.

In the case of `CCC(CC)Nc1ncc(C(N)=O)c(N[C@@H]2CCC[C@H](O)C2)n1` [Example 498, 4-((1R,3S)-3-hydroxycyclohexylamino)-2-(pentan-3-ylamino)pyrimidine-5-carboxamide], the IC50 is below 200 nM.

As for `CC(C)[C@@H](C)Nc1nc(N[C@H]2CC[C@H](O)CC2)ncc1C(N)=O` [Example 292, 2-((1r,4R)-4-hydroxycyclohexylamino)-4-((R)-3-methylbutan-2-ylamino)pyrimidine-5-carboxamide], the IC50 was below 200 nM.

As for `NC(=O)c1cnc(NC23CC(C2)C3)nc1N[C@@H]1CCCC[C@H](O)C1` [Example 346, 2-(bicyclo[1.1.1]pentan-1-ylamino)-4-((1R,3S)-3-hydroxycycloheptylamino)pyrimidine-5-carboxamide], the IC50 was below 200 nM.

As for `NC(=O)c1cnc(N[C@H]2CC[C@H](OCC(F)(F)F)CC2)nc1NC12CC(C1)C2` [Example 419, 4-(bicyclo[1.1.1]pentan-1-ylamino)-2-((1r,4r)-4-(2,2,2-trifluoroethoxy)cyclohexylamino)pyrimidine-5-carboxamide], the IC50 was below 200 nM.

Consider `C[C@@H]1CC[C@@H](Nc2nc(NC34CC(C3)C4)ncc2C(N)=O)C[C@H]1O` [Example 264, 2-(bicyclo[1.1.1]pentan-1-ylamino)-4-((1R,3R,4R)-3-hydroxy-4-methylcyclohexylamino)pyrimidine-5-carboxamide], for which the IC50 was below 200 nM.

As for `CC(C)(C)Nc1nc(N[C@H]2CC[C@](C)(O)CC2)ncc1C(N)=O` [Example 302, 4-(tert-butylamino)-2-((1r,4r)-4-hydroxy-4-methylcyclohexylamino)pyrimidine-5-carboxamide], the IC50 was below 200 nM.

Regarding `CNC(=O)c1cnc(N[C@H]2CC[C@H](OC)CC2)nc1N[C@@H]1CCC[C@H](O)C1` [Example 206, 4-((1R,3S)-3-hydroxycyclohexylamino)-2-((1r,4R)-4-methoxycyclohexylamino)-N-methylpyrimidine-5-carboxamide], the IC50 was 200 to 800 nM.

Consider `CC(C)(Nc1nc(N[C@H]2CCC[C@@H](O)C2)ncc1C(N)=O)C1CC1` [Example 457, 4-(2-cyclopropylpropan-2-ylamino)-2-((1S,3R)-3-hydroxycyclohexylamino)pyrimidine-5-carboxamide], for which the IC50 is below 200 nM.

As to `C[C@H](Nc1nc(N[C@H]2CC[C@H](O)CC2)ncc1C(N)=O)C1CC1` [Example 263, 4-((S)-1-cyclopropylethylamino)-2-((1r,4S)-4-hydroxycyclohexylamino)pyrimidine-5-carboxamide], the IC50 is below 200 nM.

Take `C[C@@H](Nc1nc(N[C@H]2CC[C@H](O)CC2)ncc1C(N)=O)C1CC1` [Example 261, 4-((R)-1-cyclopropylethylamino)-2-((1r,4R)-4-hydroxycyclohexylamino)pyrimidine-5-carboxamide]: the IC50 is below 200 nM.

`CC12CC(Nc3nc(N[C@H]4CC[C@H](O)CC4)ncc3C(N)=O)(C1)C2` [Example 393, 2-((1r,4r)-4-hydroxycyclohexylamino)-4-(3-methylbicyclo[1.1.1]pentan-1-ylamino)pyrimidine-5-carboxamide]: the IC50 was below 200 nM.

On to `CC1CCC1Nc1nc(N[C@H]2CC[C@H](OCC(F)(F)F)CC2)ncc1C(N)=O` (some centres unmarked) [Example 257, 4-(2-methylcyclobutylamino)-2-((1r,4r)-4-(2,2,2-trifluoroethoxy)cyclohexylamino)pyrimidine-5-carboxamide], for which the IC50 was below 200 nM.

`NC(=O)c1cnc(NC2CCOCC2)nc1N[C@@H]1CCC[C@H]1CO` [Example 328, 4-((1R,2R)-2-(hydroxymethyl)cyclopentylamino)-2-(tetrahydro-2H-pyran-4-ylamino)pyrimidine-5-carboxamide]: the IC50 was below 200 nM.

As to `C[C@]1(O)CCC[C@@H](Nc2nc(NC34CC(C3)C4)ncc2C(N)=O)C1` [Example 347, 2-(bicyclo[1.1.1]pentan-1-ylamino)-4-((1R,3S)-3-hydroxy-3-methylcyclohexylamino)pyrimidine-5-carboxamide], the IC50 was below 200 nM.

The test is the same for the next values; noted with them: tested in one or more of the JNK1 biochemical assays; read-out: Act. Level (JNK1 biochemical assay IC50 activity level).
Take `COC[C@H]1CC[C@@H](Nc2nc(N[C@H]3CCC(O)C3)ncc2C(N)=O)CC1` (stereo partly drawn) [Example A-99, 2-((1S,3S)-3-hydroxycyclopentylamino)-4-((1s,4R)-4-(methoxymethyl)cyclohexylamino)pyrimidine-5-carboxamide]: the IC50 is below 200 nM.

Regarding `CO[C@H]1CC[C@H](Nc2ncc(C(N)=O)c(NC3CCC3)n2)CC1` [Example A-164, 4-(cyclobutylamino)-2-((1r,4r)-4-methoxycyclohexylamino)pyrimidine-5-carboxamide], the IC50 was below 200 nM.

As to `CO[C@H]1CC[C@H](Nc2ncc(C(N)=O)c(N[C@H]3CC[C@@H](CO)CC3)n2)CC1` [Example A-119, 4-((1s,4s)-4-(hydroxymethyl)cyclohexylamino)-2-((1r,4r)-4-methoxycyclohexylamino)pyrimidine-5-carboxamide], the IC50 is below 200 nM.

For the molecule `CCO[C@H]1CC[C@H](Nc2ncc(C(N)=O)c(N[C@H]3CCCC[C@@H]3O)n2)CC1` [Example A-77, 2-((1r,4S)-4-ethoxycyclohexylamino)-4-((1S,2S)-2-hydroxycyclohexylamino)pyrimidine-5-carboxamide], the IC50 was below 200 nM.

For `CCO[C@H]1CC[C@H](Nc2ncc(C(N)=O)c(N[C@H]3CCC[C@@H]3O)n2)C1` [Example A-64, 2-((1S,3S)-3-ethoxycyclopentylamino)-4-((1S,2S)-2-hydroxycyclopentylamino)pyrimidine-5-carboxamide], the IC50 was 200 to 800 nM.

In the case of `COC[C@H]1CC[C@H](Nc2ncc(C(N)=O)c(N[C@H]3CCC[C@@H]3O)n2)CC1` [Example A-92, 4-((1S,2S)-2-hydroxycyclopentylamino)-2-((1r,4S)-4-(methoxymethyl)cyclohexylamino)pyrimidine-5-carboxamide], the IC50 is below 200 nM.

Consider `C[C@H](Nc1ncc(C(N)=O)c(N[C@H]2CC[C@@H](N)CC2)n1)C1CCCCC1` [Example A-126, 4-((1s,4R)-4-aminocyclohexylamino)-2-((S)-1-cyclohexylethylamino)pyrimidine-5-carboxamide], for which the IC50 is below 200 nM.

`CCO[C@H]1CC[C@H](Nc2ncc(C(N)=O)c(N[C@@H]3CCC[C@](C)(O)C3)n2)CC1` [Example A-157, 2-((1r,4R)-4-ethoxycyclohexylamino)-4-((1R,3S)-3-hydroxy-3-methylcyclohexylamino)pyrimidine-5-carboxamide]: the IC50 was below 200 nM.

As to `NC(=O)c1cnc(NC2CCC2)nc1N[C@H]1CC[C@@H](C(=O)N2CCCCC2)CC1` [Example A-133, 2-(cyclobutylamino)-4-((1s,4s)-4-(piperidine-1-carbonyl)cyclohexylamino)pyrimidine-5-carboxamide], the IC50 lay in the range of 800 to 1000 nM.

In the case of `CO[C@H]1CC[C@@H](Nc2nc(N[C@@H]3CC[C@@H](CO)C3)ncc2C(N)=O)CC1` [Example A-97, 2-((1R,3R)-3-(hydroxymethyl)cyclopentylamino)-4-((1s,4S)-4-methoxycyclohexylamino)pyrimidine-5-carboxamide], the IC50 was below 200 nM.

The values are drawn from patent US12129237B2, “Substituted diaminocarboxamide and diaminocarbonitrile pyrimidines, compositions thereof, and methods of treatment therewith” (SIGNAL PHARMACEUTICALS, LLC, priority 2011, dated 2024).
